Values quoted from earlier work as cited in paper PMC7473964, “Application of Pharmacokinetic-Pharmacodynamic Modeling to Inform Translation of In Vitro NaV1.7 Inhibition to In Vivo Pharmacological Response in Non-human Primate” (Pharmaceutical Research, 2020).

System: sense of smell (hyposmia) as biomarker of on-target NaV1.7 pharmacology
Design: method as in PMID 31172446
Settings: healthy volunteers, first-in-human study

Question: For `O=C(NS(=O)(=O)N1CCC1)c1cc(C2CC2)c(OCC23CC4CC(CC(C4)C2)C3)cc1F` [GDC-0276], which “Hyposmia in clinical study” value is on record?
Answer: The value was “a couple of incidents of hyposmia were reported”.
